Measured values as given in patent publication US10300031B2, “Pharmaceutical compositions for treating chronic pain and pain associated with neuropathy” (priority 2007, dated 2019).
Values joined by “and” are separate entries in the source; they are usually repeats but may differ in a detail not shown here. Equal values may be shown once. Where a name gives a salt, the structure may show the parent alone. Read-outs that look alike come from different tables or passages of the source.

Tests used:
[1] = test system: transient K+ channels in hippocampal neurons; settings: cited from earlier work
diabetic neuropathy pain [2] = assay: Combination therapy in patients with diabetic neuropathy (Table 2, testimonies); settings: for Pain Relief (percent of reduction in pain), Diabetic Neuropathy: TLI-1026 twice daily (N = 5), single agents mg/day: dextromethorphan 70, tramadol 70, gabapentin 180; for pain relief (patient or physician testimony): diabetic neuropathy patients; for side effects / tolerability: two patients with diabetic peripheral polyneuropathy
fibromyalgia pain = assay: Combination therapy in patients with fibromyalgia (Table 2, testimonies); format: in vivo, human; settings: for Pain Relief (percent of reduction in pain), Fibromyalgia: TLI-1026 twice daily (N = 5), single agents mg/day: dextromethorphan 70, tramadol 70, gabapentin 180
[3] = test system: pain in diabetic neuropathy and fibromyalgia patients; assay: Pooled statements on pain reduction in diabetic neuropathy and fibromyalgia patients; format: in vivo, human
CYP2D6 = CYP2D6 (Homo sapiens, UniProt P10635); settings: gabapentin concentrations up to 171 μg/mL; cited from earlier work
CYP2C19 = CYP2C19 (Homo sapiens, UniProt P33261); settings: gabapentin concentrations up to 171 μg/mL; cited from earlier work
CYP2C9 = CYP2C9 (Homo sapiens, UniProt P11712); settings: gabapentin concentrations up to 171 μg/mL; cited from earlier work
CYP1A2 = CYP1A2 (Homo sapiens, UniProt P05177); settings: gabapentin concentrations up to 171 μg/mL; cited from earlier work
CYP1A2, sequence (P05177 whole entry): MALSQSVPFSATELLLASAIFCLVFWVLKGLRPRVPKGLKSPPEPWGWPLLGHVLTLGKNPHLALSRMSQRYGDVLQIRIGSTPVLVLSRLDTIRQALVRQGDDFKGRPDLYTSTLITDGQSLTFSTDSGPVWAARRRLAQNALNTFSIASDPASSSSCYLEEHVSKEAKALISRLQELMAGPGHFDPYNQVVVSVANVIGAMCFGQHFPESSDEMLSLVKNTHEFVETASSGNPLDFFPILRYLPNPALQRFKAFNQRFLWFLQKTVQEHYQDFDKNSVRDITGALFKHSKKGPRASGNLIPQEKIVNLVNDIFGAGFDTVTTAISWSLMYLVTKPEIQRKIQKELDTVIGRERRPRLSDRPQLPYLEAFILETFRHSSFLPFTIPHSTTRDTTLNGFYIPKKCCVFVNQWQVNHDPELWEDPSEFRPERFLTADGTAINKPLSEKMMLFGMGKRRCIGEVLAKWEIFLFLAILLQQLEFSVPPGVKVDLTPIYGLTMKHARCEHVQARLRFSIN

Fibromyalgia = settings: Dose mg/day: dextromethorphan hydrobromide 400-480, tramadol hydrochloride 400, gabapentin 3600; cited from earlier work
CYP2E1 = CYP2E1 (Homo sapiens, UniProt P05181); settings: gabapentin concentrations up to 171 μg/mL; cited from earlier work
CYP3A4 = CYP3A4 (Homo sapiens, UniProt P08684); settings: gabapentin concentrations up to 171 μg/mL; cited from earlier work
[4] = cited from earlier work
Diabetic Neuropathy = settings: Dose mg/day: dextromethorphan hydrobromide 400-480, tramadol hydrochloride 400, gabapentin 3600; cited from earlier work
diabetic neuropathy pain [5] = settings: human, in vivo
pain score in patients = settings: cited from earlier work
[6] = test system: patients with diabetic peripheral neuropathy; settings: diabetic peripheral neuropathy trials; cited from earlier work
[7] = test system: patients with fibromyalgia; settings: fibromyalgia trials, cited from earlier work
μ-opiate receptors = μ-opiate receptors (Homo sapiens, UniProt P35372); settings: cited from earlier work
μ-opiate receptors, sequence (P35372 whole entry): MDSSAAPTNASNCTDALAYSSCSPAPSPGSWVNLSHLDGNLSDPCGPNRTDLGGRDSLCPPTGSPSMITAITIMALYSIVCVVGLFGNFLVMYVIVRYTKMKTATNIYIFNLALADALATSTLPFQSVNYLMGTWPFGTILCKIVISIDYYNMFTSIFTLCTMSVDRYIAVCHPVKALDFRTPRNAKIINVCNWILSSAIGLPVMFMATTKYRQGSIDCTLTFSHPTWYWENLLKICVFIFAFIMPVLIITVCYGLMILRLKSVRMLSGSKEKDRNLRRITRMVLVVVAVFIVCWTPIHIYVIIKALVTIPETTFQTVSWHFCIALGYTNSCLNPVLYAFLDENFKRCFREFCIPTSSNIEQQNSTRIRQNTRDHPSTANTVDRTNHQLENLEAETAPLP

[8] = cited from earlier work; for accumulation during multiple dose treatment: multiple dose treatment with tramadol
[9] = 0.2M sodium chloride; cited from earlier work
[10] = oral dosing of rats, after 3 hours; cited from earlier work
[11] = test system: NF-κ-B activation in human myeloid ML-1a cells; settings: pretreatment of ML-1a cells; dose- and time-dependent; cited from earlier work
[12] = 90 g cream (0.025% capsaicin) per week, 100% absorbed, 50 kg person; cited from earlier work
[13] = i.v. administration, rats; cited from earlier work
[14] = test system: pain (arthritis, back, cancer neuropathy, tooth, lumbar, cervical spondyolosis, knee); settings: in vivo
[15] = test system: painful diabetic neuropathy; settings: oral amitriptyline; cited from earlier work
cardiac Na+ channels = cardiac Na+ channels (Homo sapiens, UniProt Q14524); settings: cited from earlier work
cardiac Na+ channels, sequence (Q14524 whole entry): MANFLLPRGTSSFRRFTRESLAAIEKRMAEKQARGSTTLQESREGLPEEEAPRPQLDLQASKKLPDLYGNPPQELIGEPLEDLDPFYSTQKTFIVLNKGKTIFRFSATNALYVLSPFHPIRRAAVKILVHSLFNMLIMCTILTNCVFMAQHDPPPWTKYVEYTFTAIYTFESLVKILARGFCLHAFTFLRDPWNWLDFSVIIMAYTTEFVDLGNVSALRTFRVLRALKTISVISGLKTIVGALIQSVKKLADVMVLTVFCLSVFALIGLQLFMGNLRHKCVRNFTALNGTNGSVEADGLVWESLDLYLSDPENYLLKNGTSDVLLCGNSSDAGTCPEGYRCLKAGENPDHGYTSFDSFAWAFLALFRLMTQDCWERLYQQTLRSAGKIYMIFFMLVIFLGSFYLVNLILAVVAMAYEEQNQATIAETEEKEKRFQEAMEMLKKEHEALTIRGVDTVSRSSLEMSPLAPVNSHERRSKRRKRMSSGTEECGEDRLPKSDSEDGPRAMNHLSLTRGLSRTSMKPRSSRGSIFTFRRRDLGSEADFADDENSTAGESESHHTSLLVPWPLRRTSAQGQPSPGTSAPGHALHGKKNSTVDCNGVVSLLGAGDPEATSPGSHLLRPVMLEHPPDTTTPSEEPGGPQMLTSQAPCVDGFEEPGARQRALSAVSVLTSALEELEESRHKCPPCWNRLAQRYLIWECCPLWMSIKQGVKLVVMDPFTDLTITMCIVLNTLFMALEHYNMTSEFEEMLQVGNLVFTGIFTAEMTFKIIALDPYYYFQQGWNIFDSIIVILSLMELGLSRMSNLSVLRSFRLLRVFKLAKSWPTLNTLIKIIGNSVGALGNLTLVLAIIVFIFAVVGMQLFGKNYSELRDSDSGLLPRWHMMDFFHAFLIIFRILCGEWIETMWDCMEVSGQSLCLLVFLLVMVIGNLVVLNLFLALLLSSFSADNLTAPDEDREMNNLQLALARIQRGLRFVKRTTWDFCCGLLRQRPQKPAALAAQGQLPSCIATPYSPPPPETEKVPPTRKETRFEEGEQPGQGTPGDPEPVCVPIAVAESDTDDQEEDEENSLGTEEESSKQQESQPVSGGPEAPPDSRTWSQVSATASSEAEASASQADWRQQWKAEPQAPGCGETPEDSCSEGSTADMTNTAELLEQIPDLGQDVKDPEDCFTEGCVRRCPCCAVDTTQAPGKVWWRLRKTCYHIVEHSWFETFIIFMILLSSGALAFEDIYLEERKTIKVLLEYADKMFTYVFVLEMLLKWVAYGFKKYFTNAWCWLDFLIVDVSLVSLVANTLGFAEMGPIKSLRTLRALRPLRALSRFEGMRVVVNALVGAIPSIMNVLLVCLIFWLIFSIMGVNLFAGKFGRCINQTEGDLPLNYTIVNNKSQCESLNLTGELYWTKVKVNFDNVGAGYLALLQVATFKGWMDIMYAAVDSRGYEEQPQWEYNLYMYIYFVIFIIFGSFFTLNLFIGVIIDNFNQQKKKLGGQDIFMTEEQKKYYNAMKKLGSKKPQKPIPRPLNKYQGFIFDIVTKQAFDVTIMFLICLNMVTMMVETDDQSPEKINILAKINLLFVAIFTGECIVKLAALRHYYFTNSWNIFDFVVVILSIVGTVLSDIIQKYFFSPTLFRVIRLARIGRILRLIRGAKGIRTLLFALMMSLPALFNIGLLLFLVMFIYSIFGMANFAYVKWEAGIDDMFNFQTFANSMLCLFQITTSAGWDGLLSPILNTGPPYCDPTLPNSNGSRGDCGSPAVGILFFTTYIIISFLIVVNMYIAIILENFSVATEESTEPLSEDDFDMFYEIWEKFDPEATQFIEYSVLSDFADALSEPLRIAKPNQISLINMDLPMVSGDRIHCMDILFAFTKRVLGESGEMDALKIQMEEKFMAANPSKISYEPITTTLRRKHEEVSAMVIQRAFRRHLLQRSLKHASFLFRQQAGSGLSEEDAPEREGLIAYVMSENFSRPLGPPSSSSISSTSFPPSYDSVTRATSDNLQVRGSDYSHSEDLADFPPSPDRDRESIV

[16] = test system: Na+ currents in adrenal chromaffin cells; settings: read-out: IC50, peak Na+ currents; cited from earlier work
postherpetic neuralgia = settings: oral amitriptyline; cited from earlier work
hH1 Na+ channels = hH1 Na+ channels (Homo sapiens, UniProt Q14524); settings: cited from earlier work; for IC50: 0.1-100 μM
hH1 Na+ channels, sequence (Q14524 whole entry): as above

For `CN(C)CCCN1c2ccccc2CCc2ccccc21` [imipramine], the IC50 [1] is given as ~6 µM.
In the case of `COc1ccc2c(c1)[C@]13CCCC[C@@H]1[C@H](C2)N(C)CC3`, the “Pain Relief (percent of reduction in pain), Diabetic Neuropathy” value (diabetic neuropathy pain [2]) is reported as <10% and the “Pain Relief (percent of reduction in pain), Fibromyalgia” value (fibromyalgia pain) is reported as <10%.
With `NCC1(CC(=O)O)CCCCC1` [Gabapentin] the “Pain Relief (percent of reduction in pain), Diabetic Neuropathy” value (diabetic neuropathy pain [2]) was <10%, the “pain relief (patient or physician testimony)” value (diabetic neuropathy pain [2]; listed as Neurontin) was “no substantial pain relief” and the “pain relief (patient or physician testimony)” value (diabetic neuropathy pain [2]; listed as Nurontin) was “only curb the pain”. For the same compound, the “side effects / tolerability” value (diabetic neuropathy pain [2]) was “substantial, negative side effects”, the “relief from pain with prior therapy (physician testimony)” value ([3]; up to 1600 mg per day, patients with diabetic neuropathy or fibromyalgia) was “partial and marginal relief” and the “Pain Relief (percent of reduction in pain), Fibromyalgia” value (fibromyalgia pain) was <10%. The “inhibition of CYP2D6” value (CYP2D6) was “No inhibition”, the “inhibition of CYP2C19” value (CYP2C19) was “No inhibition” and the “inhibition of CYP2C9” value (CYP2C9) was “No inhibition”. The “inhibition of CYP1A2” value (CYP1A2) was “No inhibition”, the “Pain Relief (percent of reduction in pain), Fibromyalgia” value (Fibromyalgia) was <50 (Lesley 2007) percent and the “inhibition of CYP2E1” value (CYP2E1) was “No inhibition”. For the same compound, the “inhibition of CYP3A4” value (CYP3A4) was “No inhibition”, the bioavailability ([4]; 900 mg/day given in 3 divided doses) was “approximately 60%” and the bioavailability ([4]; 1200 mg/day given in 3 divided doses) was ~47%. The bioavailability ([4]; 2400 mg/day given in 3 divided doses) was ~34%, the bioavailability ([4]; 3600 mg/day given in 3 divided doses) was ~33% and the bioavailability ([4]; 4800 mg/day given in 3 divided doses) was ~27%. For the same compound, the “increase in AUC and Cmax with food” value ([4]; food effect) was 14%, the “bound to plasma protein” value ([4]; in vivo) was “Less than 3%” and the “steady-state predose (Cmin) concentration in cerebrospinal fluid, % of corresponding plasma concentrations” value ([4]; patients with epilepsy) was “approximately 20%”. For the same compound, the “Pain Relief (percent of reduction in pain), Diabetic Neuropathy” value (Diabetic Neuropathy) was <50 (Marchettini percent and <50%.
With `CC(C)C[C@H](CN)CC(=O)O` [Lyrica] the “pain relief (patient or physician testimony)” value (diabetic neuropathy pain [2]) was “only minimal resolution of symptoms” and the “side effects / tolerability” value (diabetic neuropathy pain [2]) was “substantial, negative side effects”.
In the case of `CN(C)CCC=C1c2ccccc2CCc2ccccc21` [Elavil], the “pain relief (patient or physician testimony)” value (diabetic neuropathy pain [2]) is reported as “no substantial pain relief” and the “side effects / tolerability” value (diabetic neuropathy pain [5]) is reported as “substantial, negative side effects”.
In the case of `CC(C)C[C@H](CN)CC(=O)O` [pregabalin], the “endpoint mean pain score and proportion with at least a 50% reduction in pain score” value (pain score in patients; 8-week study, 50 and 100 mg three times a day) is given as “statistically significantly improved”, the “endpoint mean pain score and proportion with at least a 50% reduction in pain score” value (pain score in patients; 8-week study, 100 or 200 mg three times a day, doses assigned by creatinine clearance) is given as “statistically significantly improved” and the “endpoint mean pain score and proportion with at least a 50% reduction in pain score” value (pain score in patients; 13-week study, 75, 150, 300 mg twice daily, creatinine clearance greater than 60 mL/min, all doses) is given as “statistically significantly improved”. The “endpoint mean pain score and proportion with at least a 50% reduction in pain score” value (pain score in patients; 100 and 200 mg three times a day) was “statistically significantly improved”, the “discontinuation due to dizziness” value [6] was 3% and the “discontinuation due to somnolence” value [6] was 2%. For the same compound, the “patients who discontinued prematurely due to adverse reactions” value [6] was 9%, the “withdrawal due to each of asthenia, confusion, peripheral edema” value [6] was “approximately 1%” and the “patients who discontinued prematurely due to adverse reactions” value ([7]; 150-600 mg/day) was 19%. For the same compound, the “discontinuation due to dizziness” value [7] was 6%, the “discontinuation due to somnolence” value [7] was 3% and the “withdrawal due to each of fatigue, headache, balance disorder, weight increased” value [7] was “approximately 1%”.
With `COc1cccc(C2(O)CCCCC2CN(C)C)c1` (single isomer, unassigned) [Tramadol Hydrochloride, (1R,2R or 1S,2S)-(dimethylaminomethyl)-1-(3-methoxyphenyl)-cyclohexanol] the “Pain Relief (percent of reduction in pain), Diabetic Neuropathy” value (diabetic neuropathy pain [2]) was <10%, the reduction in pain ([3]; 400 mg of tramadol per day, patients with diabetic neuropathy and fibromyalgia) was 30-40% and the “Pain Relief (percent of reduction in pain), Fibromyalgia” value (fibromyalgia pain) was <10%. For the same compound, the “pain relief (patient or physician testimony)” value (fibromyalgia pain; fibromyalgia patients) was “moderate relief”, the “affinity for μ-opiate receptors relative to dextromethorphan” value (μ-opiate receptors) was “equivalent” and the “affinity for μ-opiate receptors, fold less than codeine” value (μ-opiate receptors) was 10 fold. The “affinity for μ-opiate receptors, fold less than d-propoxyphene” value (μ-opiate receptors) was 100 fold, the “affinity for μ-opiate receptors, fold less than morphine” value (μ-opiate receptors) was 6,000 fold and the “Pain Relief (percent of reduction in pain), Fibromyalgia” value (Fibromyalgia) was <30 (Biasi 1998; percent. For the same compound, the “time to peak serum concentrations” value ([8]; after oral administration) was ≤ 2 h, the “accumulation during multiple dose treatment” value [8] was “approximately 2 fold” and the “duration of the analgesic effect” value ([8]; single oral dose of tramadol 100 mg) was “about 6 hours”. The “Pain Relief (percent of reduction in pain), Diabetic Neuropathy” value (Diabetic Neuropathy) was <35 (Sindrup 1999) percent and <35%.
For `COc1ccc(C(CN(C)C)C2(O)CCCCC2)cc1` (racemic) [Venlafaxine hydrochloride, (R/S)-1-[2-(dimethylamino)-1-(4-methoxyphenyl)ethyl]cyclohexanol], the “octanol:water partition coefficient” value [9] is given as 0.43.
In the case of `COc1cc(CNC(=O)CCCCC=CC(C)C)ccc1O` [capsaicin, 8-methyl-N-vanillyl-6-nonenamide], the “absorption in the jejunum” value [10] is listed as 85%, the “effect on TNF-mediated activation of NF-κ-B” value [11] is listed as “blocked TNF-mediated activation of NF-κ-B” and the estimated daily exposure [12] is listed as 0.064 mg/kg. The “time to distribution to brain, spinal cord, liver and blood” value [13] was ≤ 20 min.
In the case of `CCCC(C)(COC(N)=O)COC(=O)NC(C)C` (stereo not shown) [Soma, Carisoprodol], the “pain relief (testimony)” value [14] is reported as “only seemed to mask the pain” and the side effects [14] is reported as “quite drowsy”.
In the case of `CN(C)CCC=C1c2ccccc2CCc2ccccc21` [amitriptyline], the “share of patients with a good or moderate response” value [15] is given as “three-quarters”, the “use-dependent block of Na+ current” value (cardiac Na+ channels; 0.4 μM, repetitive pulses at a frequency of 5 Hz, cardiac myocytes) is given as “profound use-dependent block” and the “time constant of recovery from the use-dependent block” value (cardiac Na+ channels; cardiac Na+ channels) is given as 13.6 s. The IC50 [16] was 20.2 µM, the “share of patients with a good or moderate response” value (postherpetic neuralgia) was “about two-thirds” and the “use-dependent block during repetitive pulses” value (hH1 Na+ channels; 1 μM, 5 Hz) was ~55%. For the same compound, the IC50 (hH1 Na+ channels; inactivated channels, n=7, read-out: IC50, tonic block of inactivated hH1 channels) was 0.58 ± 0.03 µM and the IC50 (hH1 Na+ channels; resting channels, n=9, read-out: IC50, tonic block of resting hH1 channels) was 24.8 ± 2 µM.
In the case of `CN(C)C[C@H]1CCCC[C@]1(O)c1cccc(O)c1` [M1 derivative], the half-life ([8]; after a single oral dose of 100 mg) is listed as 9 h and the “accumulation during multiple dose treatment” value [8] is listed as “approximately 2 fold”.
For `COc1ccc2c(c1)[C@]13CCCC[C@@H]1[C@H](C2)N(C)CC3` [Dextromethorphan Hydrobromide], the “Pain Relief (percent of reduction in pain), Fibromyalgia” value (Fibromyalgia) is listed as <40 (Staud 2005) percent and the “Pain Relief (percent of reduction in pain), Diabetic Neuropathy” value (Diabetic Neuropathy) is listed as <50 (Sang 2002) percent and <50%.
